Data from patent US20250099431A1, “GLP-1R MODULATING COMPOUNDS” (priority 2020, published 2025).

What was measured:
[1] = Microsomal stability (liver microsomal assay, mixed cofactors); predicted hepatic clearance; type: in vitro ADME; conditions: liver microsomes 1.0 mg protein/mL (+UDPGA +NADPH), 1 μM analyte, 37° C.; scaled with human liver weight and hepatic blood flow 1.3 L/hr/kg
Description: Metabolic stability of compounds was assessed using human or rat liver microsomal assays (Corning). In these assays, 10 nL of each analyte at a concentration of 1 mM in 100% DMSO was dispensed into a well of a polypropylene plates using the Echo 550 acoustic liquid dispenser (Labcyte®). Each plate contained 384 wells with a single analyte in each well.
A solution of human (Corning® Gentest™ Human Mixed Pooled Microsomes or rat (Corning® Gentest™ Rat [Sprague-Dawley] Pooled Liver Microsomes) liver microsomes at 2 mg/ml in 100 mM K2HPO4/KH2PO4 at pH 7. 4 was combined with alamethicin from Trichoderma viride (Sigma-Aldrich) 0.0225 mg/ml. The mixture was incubated on ice for 15 minutes. 5 μL of this mixture was added to individual wells following a 15 minute incubation at room temperature and supplemented with 5 μL NADPH Regenerating Solution of cofactors (Corning® Gentest™ UGT Reaction Mix) containing 100 mM K2HPO4/KH2PO4 at pH 7.4, 2.6 mM NADP+, 6.6 mM glucose-6-phosphate, 6.6 mM MgCl2, 0.8 U/mL glucose-6-phosphate dehydrogenase, 0.1 mM sodium citrate, and 6.8 mM uridine diphosphate-glucuronic acid. The final concentration of each analyte compound at the beginning of the reaction was 1 μM. The reactions were incubated at 37° C. and samples were collected at time points of 0, 5, 15, 30, 40, 50, 60, and 70 minutes for further analysis. Background data were collected using reactions without analyte compounds.
Upon collection of the sample time points, samples were quenched with 30 μL of a solution of 72% acetonitrile, 8% methanol, 0.1% formic acid, 19.9% water, and internal standard (IS). Reaction plates were spun in a centrifuge at speed of 4,000 rcf for 30 minutes at 4° C., following a dilution of the 10 μL quenched reaction into 40 μL de-ionized water, yielding assay plates.
Assay plates were analyzed using solid-state extraction coupled with quadrupole time-of-flight mass spectrometer, using Agilent QToF 6530 RapidFire 360 system, with C4 type A solid state cartridges. Analysis was performed in either positive or negative ionization modes. Mobile phases contained 0.1% formic acid in water for loading analytes onto solid state extraction cartridges and 0.1% formic acid in acetonitrile for elution into a mass spectrometer in positive ionization mode, or 0.1% acetic acid in water for loading and 0.1% acetic acid in acetonitrile for extraction in negative ionization mode. Peak-area ratios of integrated counts for individual compounds to IS were plotted as semi-logarithmic chart of log vs time. The initial linear portion of decay was fitted to a linear regression equation to derive the half-time of analyte decay.
Pharmacological parameters for an analyte compound metabolism were calculated using the following equations: […]
wherein concentration refers to the protein concentration (mg/ml) in the reaction.
This scales the in vitro intrinsic clearance up to the value that would be predicted for the entire mass of liver tissue (but with no restriction by blood flow). The value depends upon the size of the liver (species-dependent) and the yield of microsomal protein as appropriate (assumed to be species-independent).
Hepatic clearance will depend upon the inter-relationship of intrinsic clearance and hepatic blood flow and was predicted from in vitro data using a variety of approaches.
The hepatic extraction is reported as the predicted clearance expressed as a proportion of hepatic blood flow.

GLP-1R = GLP-1R (Homo sapiens (Human), UniProt P43220); experiment: GLP-1R activation: cAMP increase in CHO cells stably expressing GLP-1R; type: cell-based; conditions: cAMP increase, 10 point dose response, 30 minutes incubation at 37° C., read-out: EC50
Description: GLP-1R activation by a compound of the present disclosure was quantified by measuring cAMP increase in CHO cells stably expressing GLP-1R (MultiSpan product #C1267-1a). […] The cells were then incubated overnight at 37° C., 5% CO2. […] 1% BSA (Rockland Immunochemicals product #BSA-1000)). Following the medium change, the cells were incubated for 1 hour at 37° C., 5% CO2. The tested GLP-1 compound was added to the cells in a 10 point dose response followed by a 30 minutes incubation at 37° C., 5% CO2. cAMP concentration increase was then detected using Cisbio's cAMP Gs Dynamic Kit (product #62AM4PEC) according to the manufacturer's protocol. The response was plotted against the log of the agonist concentration and fitted to a sigmoidal equation to determine the EC50.

Sequence of GLP-1R (P43220 24-463): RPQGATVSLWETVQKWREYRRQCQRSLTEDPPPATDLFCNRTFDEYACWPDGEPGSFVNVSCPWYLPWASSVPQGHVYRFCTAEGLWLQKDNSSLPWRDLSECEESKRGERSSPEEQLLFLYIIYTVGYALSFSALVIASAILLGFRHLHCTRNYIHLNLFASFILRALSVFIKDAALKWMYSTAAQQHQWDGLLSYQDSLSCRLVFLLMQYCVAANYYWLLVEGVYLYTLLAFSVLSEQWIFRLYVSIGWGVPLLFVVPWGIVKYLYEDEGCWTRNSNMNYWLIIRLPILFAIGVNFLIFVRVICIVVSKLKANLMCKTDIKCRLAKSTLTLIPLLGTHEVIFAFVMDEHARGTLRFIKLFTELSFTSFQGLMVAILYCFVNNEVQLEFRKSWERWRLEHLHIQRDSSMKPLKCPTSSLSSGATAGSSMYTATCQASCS

Compound	Predicted Hepatic Clearance (Pred. Cl.) [1]	EC50 (GLP-1R)
2-[[4-[2-(5- Chloro-2-pyridyl)- 2-methyl-1,3- benzodioxol-4- yl]triazol-1- yl]methyl]-3-(2- methoxyethyl) bencarboxylic acid [Example 104]	13 mL/min/kg	3030 nM
COCCn1c(Cc2c(F)cc(-c3cccc4c3OC(C)(c3ccc(Cl)cc3F)O4)cc2F)nc2ccc(C(=O)NS(=O)(=O)C3CC3)cc21 (racemic) [Example 3, 2-(4-(2-(4-chloro-2-fluorophenyl)-2-methylbenzo[d][1, 3]dioxol-4-yl)-2,6-difluorobenzyl)-N-(cyclopropylsulfonyl)-1-(2-methoxyethyl)-1H-benzo[d]imidazole-6-carboxamide]	2 mL/min/kg	78 nM
COCCn1c(Cc2ccc(-c3cccc4c3OC(c3ccc(C#N)cc3F)O4)cc2F)nc2ccc(C(=O)O)cc21 (single isomer, unassigned) [Example 33, 2-(4-(2-(4-cyano-2-fluorophenyl)benzo [d][1,3]dioxol-4-yl)-2-fluorobenzyl)-1-(2-methoxyethyl)-1H-benzo[d]imidazole-6-carboxylic acid]	2.67 mL/min/kg	53 nM
COCCn1c(Cc2ccc(-c3cccc4c3OC(c3ccc(C#N)cc3F)O4)cc2F)nc2ccc(C(=O)O)cc21 (single isomer, unassigned) [Example 34]	4.17 mL/min/kg	350 nM
COCCn1c(Cc2ccc(-c3cccc4c3OC(c3ccccc3)O4)cc2F)nc2ccc(C(=O)O)cc21 (single isomer, unassigned) [Example 35, 2-(2-fluoro-4-(2-phenylbenzo[d][1, 3]dioxol-4-yl)benzyl)-1-(2-methoxyethyl)-1H-benzo[d]imidazole-6-carboxylic acid]	2.83 mL/min/kg	646 nM
CC1(c2ccc(Cl)cc2F)Oc2cccc(-c3ccc(Cc4nc5ccc(C(=O)O)cc5n4CC4(n5ccnn5)CC4)c(F)c3)c2O1 (stereo not drawn) [Example 51, 1-((1-(1H-1,2,3-triazol-1-yl)cyclopropyl)methyl)-2-(4-(2-(4-chloro-2-fluorophenyl)-2-methylbenzo[d][1, 3]dioxol-4-yl)-2-fluorobenzyl)-1H-benzo[d]imidazole-6-carboxylic acid]	2.5 mL/min/kg	–
COCCn1c(Cc2cc(-c3cccc4c3OC(C)(c3ccc(Cl)cc3F)O4)cs2)nc2ccc(C(=O)O)cc21 (stereo not drawn) [Example 59, 2-((4-(2-(4-chloro-2-fluorophenyl)-2-methylbenzo[d][1, 3]dioxol-4-yl)thiophen-2-yl)methyl)-1-(2-methoxyethyl)-1H-benzo[d]imidazole-6-carboxylic acid]	–	1620 nM
CC1(c2ccc(Cl)cc2F)Oc2cccc(-c3cc(F)c(Cc4nc5ccc(C(=O)O)cc5n4CCS(C)(=O)=O)c(F)c3)c2O1 (stereo not drawn) [Example 82, 2-[[4-[2-(4-chloro-2-fluoro-phenyl)-2-methyl-1,3-benzodioxol-4-yl]-2,6-difluoro-phenyl]methyl]-3-(2-methylsulfonylethyl) benzimidazole-5-carboxylic acid]	–	20 nM
COCCn1c(Cc2cc(F)c(-c3cccc4c3OC(C)(c3ccc(Cl)cc3F)O4)cc2F)nc2ccc(C(=O)O)cc21 (stereo not drawn) [Example 113, 2-[[4-[2-(4-chloro-2-fluoro-phenyl)-2-methyl-1,3-benzodioxol-4-yl]-2,5-difluoro-phenyl]methyl]-3-(2-methoxyethyl) benzimidazole-5-carboxylic acid]	5.83 mL/min/kg	–
COCCn1c(Cc2cc(F)c(-c3cccc4c3OC(C)(c3ccc(Cl)cn3)O4)cc2F)nc2ccc(C(=O)O)cc21 (stereo not drawn) [Example 114, 2-[[4-[2-(5-chloro-2-pyridyl)-2-methyl-1,3-benzodioxol-4-yl]-2,5-difluoro-phenyl]methyl]-3-(2-methoxyethyl) benzimidazole-5-carboxylic acid]	7.67 mL/min/kg	–
